Measured values reported in patent US20260116910A1, “POLYCYCLIC COMPOUNDS AND METHODS THEREOF” (HEPAITECH (BEIJING) BIOPHARMA TECHNOLOGY CO., LTD., priority 2021, published 2026).
Where two headings read alike, the source gives them in different places.

Legend:
[1] = biological target: T1, human FXR (NR1H4) (Homo sapiens, UniProt Q96RI1); experiment: Human FXR (NR1H4) agonist assessment, FXRE-NanoLuc reporter in HEK293T cells; type: cell-based
T1 sequence (Q96RI1 1-476 isoform Q96RI1-1): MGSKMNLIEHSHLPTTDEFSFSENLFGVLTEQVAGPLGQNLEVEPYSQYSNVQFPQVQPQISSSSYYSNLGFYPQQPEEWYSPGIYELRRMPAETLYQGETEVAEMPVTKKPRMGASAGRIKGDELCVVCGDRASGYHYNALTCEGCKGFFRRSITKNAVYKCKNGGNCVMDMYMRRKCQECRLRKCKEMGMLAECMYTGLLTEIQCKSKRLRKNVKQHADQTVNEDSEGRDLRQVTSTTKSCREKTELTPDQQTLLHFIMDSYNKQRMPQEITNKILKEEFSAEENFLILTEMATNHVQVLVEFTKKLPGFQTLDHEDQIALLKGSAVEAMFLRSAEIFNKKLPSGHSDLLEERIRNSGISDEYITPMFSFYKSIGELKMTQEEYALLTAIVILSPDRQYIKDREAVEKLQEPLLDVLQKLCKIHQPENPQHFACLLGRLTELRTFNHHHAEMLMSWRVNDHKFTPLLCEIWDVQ
Procedure, shortened: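 HEK293T cells stably expressing human FXR with an FXRE-NanoLuc reporter were treated with compounds for 24 hr at 37 °C, with 0.01% DMSO as negative control. Medium was read for luminescence after 5 min with coelenterazine. EC50 was fitted by sigmoid to concentration-response data.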

[2] = biological target: MRGPRX4 (Homo sapiens, UniProt Q96LA9); experiment: MRGPRX4 activation, Fluo-8 Ca2+ FLIPR assay in HEK293T cells stably expressing MRGPRX4; type: cell-based; set-up: key to MRGPRX4 activation, Average / MRGPRX4 activation, Ave.: fluorescence change dF/F0
MRGPRX4, sequence (Q96LA9 whole entry): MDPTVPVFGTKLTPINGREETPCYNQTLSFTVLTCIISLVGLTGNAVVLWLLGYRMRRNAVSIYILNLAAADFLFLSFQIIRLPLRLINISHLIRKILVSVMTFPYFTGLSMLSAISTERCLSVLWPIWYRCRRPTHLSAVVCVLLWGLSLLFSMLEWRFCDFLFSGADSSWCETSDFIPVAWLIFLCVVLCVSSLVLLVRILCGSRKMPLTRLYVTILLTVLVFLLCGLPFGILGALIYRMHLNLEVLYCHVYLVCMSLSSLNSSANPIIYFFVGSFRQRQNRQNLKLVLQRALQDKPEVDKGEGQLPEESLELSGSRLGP
Procedure, shortened: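 Cells seeded overnight to >95% confluence, loaded 40-60 min at room temperature with 2 μM Fluo-8 AM, then kept in HHBS. Baseline read 30 s, compound added, signal followed 150 s more.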

[3] = FXR activation, HEK293T FXRE-NanoLuc reporter, 24 hr
[4] = FXR activation, HEK293T FXRE-NanoLuc reporter, 24 hr, read-out: EC50
[5] = MRGPRX4 activation, Ca2+ fluorescence, no activation in tested range reported as III, read-out: Activity (EC50 μM)

| Structure (SMILES) | Efficacy (maximum measured induction of NanoLuc, normalized to CDCA set as 100%) [1, 3] | EC50 [1, 4] [µM] | MRGPRX4 activation, fluorescence change (dF/F0), Average ([2]; Conc. (Log[M]) −4) | MRGPRX4 activation, fluorescence change (dF/F0), Average ([2]; Conc. (Log[M]) −4.5) | MRGPRX4 activation, fluorescence change (dF/F0), Average ([2]; Conc. (Log[M]) −5) | MRGPRX4 activation, fluorescence change (dF/F0), Average ([2]; Conc. (Log[M]) −5.5) | MRGPRX4 activation, fluorescence change (dF/F0), Average ([2]; Conc. (Log[M]) −6) | MRGPRX4 activation, fluorescence change (dF/F0), Average ([2]; Conc. (Log[M]) −7) | MRGPRX4 activation, fluorescence change (dF/F0), Average ([2]; Conc. (Log[M]) −8) | MRGPRX4 activation, fluorescence change (dF/F0), Average ([2]; Conc. (Log[M]) −9) | EC50 [2, 5] [µM] | further results |
| --- | --- | --- | --- | --- | --- | --- | --- | --- | --- | --- | --- | --- |
| COC(=O)CC[C@@H](C)[C@H]1CC[C@H]2[C@@H]3/C(=N\OC(C)(C)C(=O)O)C[C@@H]4C[C@H](OC(C)=O)CC[C@]4(C)[C@H]3CC[C@]12C [1-3] | C (100%<efficacy <=300%) | > 10 | 0.109 | 0.114 | 0.047 | −0.026 | −0.008 | 0.018 | −0.003 | 0.008 | < 50 |  |
| CC[C@H]1[C@@H](O)[C@@H]2[C@H](CC[C@]3(C)[C@@H]([C@H](C)CCCOS(=O)(=O)O)CC[C@@H]23)[C@@]2(C)CCCC[C@@H]12 [2-6] | B (300%<efficacy <=400%) | 1 to 10 |  |  | −0.047 |  |  |  |  |  | 50 to 100 |  |
| C[C@]12CC[C@@H](O)C[C@H]1CC[C@@H]1[C@@H]2C[C@H](O)[C@]2(C)[C@@H](CCCCCC(=O)O)CC[C@@H]12 [RC-3] | B (300%<efficacy <=400%) | 1 to 10 | 0.225 | 0.233 | 0.182 | 0.026 | −0.007 | −0.027 | −0.008 | −0.013 | < 50 |  |
| CC[C@H]1[C@@H](O)[C@@H]2[C@H](CC[C@]3(C)[C@@H]([C@H](C)CCN=C=S)CC[C@@H]23)[C@@]2(C)CCCC[C@@H]12 [7-1] | C (100%<efficacy <=300%) |  |  |  |  |  |  |  |  |  |  | EC50 [1]: > 10 µM; EC50 [2]: > 100 µM; MRGPRX4 activation, Average ([2]; E3-9, Conc. (Log[M]) −4.0): 0.020; MRGPRX4 activation, Average ([2]; E3-9, Conc. (Log[M]) −4.5): 0.018; MRGPRX4 activation, Average ([2]; E3-9, Conc. (Log[M]) −5.0): 0.013; MRGPRX4 activation, Average ([2]; E3-9, Conc. (Log[M]) −5.4): 0.013; MRGPRX4 activation, Average ([2]; E3-9, Conc. (Log[M]) −5.9): 0.011; MRGPRX4 activation, Average ([2]; E3-9, Conc. (Log[M]) −6.4): 0.013; MRGPRX4 activation, Average ([2]; E3-9, Conc. (Log[M]) −6.9): 0.004; MRGPRX4 activation, Average ([2]; E3-9, Conc. (Log[M]) −7.3): 0.008; MRGPRX4 activation, Average ([2]; E3-9, Conc. (Log[M]) −7.8): 0.006; MRGPRX4 activation, Average ([2]; E3-9, Conc. (Log[M]) −8.3): 0.011 |
| CC[C@H]1[C@@H](O)[C@@H]2[C@H](CC[C@]3(C)[C@@H]([C@H](C)CCNC(=O)NS(=O)(=O)c4ccc(C)cc4)CC[C@@H]23)[C@@]2(C)CCCC[C@@H]12 [5-8] | C (100%<efficacy <=300%) | < 1 | 0.073 | 0.037 | 0.023 | 0.017 | 0.020 | 0.023 |  |  | > 100 |  |
| CC[C@H]1[C@@H](O)[C@@H]2[C@H](CC[C@]3(C)[C@@H]([C@H](C)CCNC(=O)NS(=O)(=O)c4ccc(C(C)(C)C(N)=O)cc4)CC[C@@H]23)[C@@]2(C)CCCC[C@@H]12 [5-16] | C (100%<efficacy <=300%) | < 1 |  | 0.020 |  |  |  |  |  |  | > 100 | MRGPRX4 activation, fluorescence change (dF/F0), Average ([2]; Conc. (Log[M]) −4.0): 0.030; MRGPRX4 activation, fluorescence change (dF/F0), Average ([2]; Conc. (Log[M]) −5.0): 0.010; MRGPRX4 activation, fluorescence change (dF/F0), Average ([2]; Conc. (Log[M]) −5.4): 0.020; MRGPRX4 activation, fluorescence change (dF/F0), Average ([2]; Conc. (Log[M]) −5.9): 0.020; MRGPRX4 activation, fluorescence change (dF/F0), Average ([2]; Conc. (Log[M]) −6.4): 0.013; MRGPRX4 activation, fluorescence change (dF/F0), Average ([2]; Conc. (Log[M]) −6.9): 0.013; MRGPRX4 activation, fluorescence change (dF/F0), Average ([2]; Conc. (Log[M]) −7.3): 0.013; MRGPRX4 activation, fluorescence change (dF/F0), Average ([2]; Conc. (Log[M]) −7.8): 0.013; MRGPRX4 activation, fluorescence change (dF/F0), Average ([2]; Conc. (Log[M]) −8.3): 0.025 |
